Data: US6890950B2, “Lapachone delivery systems, compositions and uses related thereto” (priority 2002, dated 2005)
Where “and” joins values, the source holds several entries; their conditions need not be identical. Identical values can stand only once. Each block holds one molecule with its values, some of them ahead of it.

Columns and labels:
[1] = test system: PC-3; assay: TUNEL apoptosis assay; format: cell-based, human; details: 10 μM, 4h, TUNEL 48h
[2] = test system: DU-145; assay: TUNEL apoptosis assay; format: cell-based, human; details: 10 μM, 4h, TUNEL 48h
[3] = test system: LNCaP; assay: TUNEL apoptosis assay; format: cell-based, human; details: 10 μM, 4h
[4] = test system: A549 NSCLC cells; assay: survival and apoptosis (PARP cleavage) of NSCLC cells; format: cell-based, human; details: 50 μM, 4 h
Text: NQO1-dependent apoptosis of A549 or CC-10 NSCLC cells by β-lap.

[5] = test system: NQO1-containing LNCaP clones; assay: colony forming ability assays; format: cell-based, human; details: 4-h pulses
Method: FIG. 14. […] Colony forming ability assays (CFAs) were performed three times, each in triplicate.
LNCaP cells were transfected with either pcDNA3 empty vector or pcDNA3 containing full-length NQO1 cDNA.

[6] = association constant (Kc) from phase solubility diagrams; format: physicochemical; details: for association constant Kc (phase solubility): inclusion complex with β-lap, PBS, 25° C., 1:1
Method: Solubility studies were performed by adding excess amount of β-lap to a series of PBS buffer that contain different concentrations of each CD molecule ranging from zero to its solubility limit (see Table 1 for the solubility limit of each CD molecule). A schematic diagram of the intermolecular interactions and their effect on solubility is provided as FIG. 1. The suspensions were stirred at 25° C. until dissolution equilibrium was reached. Then aliquots were withdrawn, filtered (Nylon syringe filter 0.2 μm pore size from Fisher Scientific (Pittsburg, Pa.)) and analyzed for β-lap concentrations by UV-V is spectrophotometry (λmax=257.2 nm, ε=109.6 ml/(mg·cm)). Phase solubility diagram for each CD was obtained by plotting the β-lap solubility at dissolution equilibrium as a function of the CD concentration. The association constant (Kc) [formula] for the complex formation was calculated based on Equation 1 assuming a 1:1 ratio of complex formation (T. Higuchi and K. A. Connors. Adv Anal Chem Instrum. 4:117-212 (1965)). ^1H NMR Study of CD.β-lap Inclusion Complexes

[7] = phase solubility studies of β-lap with cyclodextrins; format: physicochemical
Method: Solubility studies were performed by adding excess amount of β-lap to a series of PBS buffer that contain different concentrations of each CD molecule ranging from zero to its solubility limit (see Table 1 for the solubility limit of each CD molecule). A schematic diagram of the intermolecular interactions and their effect on solubility is provided as FIG. 1. The suspensions were stirred at 25° C. until dissolution equilibrium was reached. […] Phase solubility diagram for each CD was obtained by plotting the β-lap solubility at dissolution equilibrium as a function of the CD concentration.

Molecule: CC[C@@]1(O)C(=O)OCc2c1cc1n(c2=O)Cc2cc3ccccc3nc2-1 [Camptothecin, camptothecin]
Apoptosis (%) After Drug Treatment ([1]; PC-3 + DC (50 μM dicoumarol)): 22 ± 7%
Apoptosis (%) After Drug Treatment ([1]; PC-3 + DVED): 6 ± 5%
Apoptosis (%) After Drug Treatment ([1]; PC-3): 23 ± 3%
Apoptosis (%) After Drug Treatment ([2]; DU-145 + DC (50 μM dicoumarol)): 43 ± 12%
Apoptosis (%) After Drug Treatment ([2]; DU-145 + DVED): 10 ± 5%
Apoptosis (%) After Drug Treatment ([2]; DU-145): 30 ± 06%
Apoptosis (%) After Drug Treatment ([3]; LNCaP + DC (50 μM dicoumarol), TUNEL 48h): 33 ± 9%
Apoptosis (%) After Drug Treatment ([3]; LNCaP + DVED, TUNEL 48h): 10 ± 3%
Apoptosis (%) After Drug Treatment ([3]; LNCaP, TUNEL 48h post-treatment): 30 ± 5%

Molecule: O=c1oc2ccccc2c(O)c1Cc1c(O)c2ccccc2oc1=O [dicoumarol]
effect on cell growth (survival), alone [4]: no effect

Molecule: CC1=CC(=O)c2ccccc2C1=O [menadione]
sensitivity compared to NQO1-deficient LN-pcDNA3 vector alone cells [5]: resistant

Molecule: OC[C@H]1O[C@@H]2O[C@H]3[C@H](O)[C@@H](O)[C@@H](O[C@H]4[C@H](O)[C@@H](O)[C@@H](O[C@H]5[C@H](O)[C@@H](O)[C@@H](O[C@H]6[C@H](O)[C@@H](O)[C@@H](O[C@H]7[C@H](O)[C@@H](O)[C@@H](O[C@H]1[C@H](O)[C@H]2O)O[C@@H]7CO)O[C@@H]6CO)O[C@@H]5CO)O[C@@H]4CO)O[C@@H]3CO [α-CD]
association constant Kc (phase solubility) [6]: 20.0 ± 0.7 M⁻¹ and 20 M⁻¹

Kc increase over α-CD (factor) [6]: 8
association constant Kc (phase solubility) [6]: 160 ± 5 M⁻¹ and 160 M⁻¹
Molecule: OC[C@H]1O[C@@H]2O[C@H]3[C@H](O)[C@@H](O)[C@@H](O[C@H]4[C@H](O)[C@@H](O)[C@@H](O[C@H]5[C@H](O)[C@@H](O)[C@@H](O[C@H]6[C@H](O)[C@@H](O)[C@@H](O[C@H]7[C@H](O)[C@@H](O)[C@@H](O[C@H]8[C@H](O)[C@@H](O)[C@@H](O[C@H]9[C@H](O)[C@@H](O)[C@@H](O[C@H]1[C@H](O)[C@H]2O)O[C@@H]9CO)O[C@@H]8CO)O[C@@H]7CO)O[C@@H]6CO)O[C@@H]5CO)O[C@@H]4CO)O[C@@H]3CO [γ-CD]

solubility (limit) of HPβ-CD [7]: 360 mM
Molecule: hydroxypropyl β-cyclodextrin [HPβ-CD]
